For one test, the system named is SD female rats. The experiment in a line: Measurement of urethral resistance increasing effect (leak point pressure), intravenous administration. It is filed as in vivo. The conditions noted are these: rat, 0.3 mg/kg and 1.0 mg/kg, 10 min after administration, compared to vehicle (Williams' test). On the procedure:
Experimental Example 4 Measurement of Urethral Resistance Increasing Effect
The urethral resistance increasing effect in rat was measured by a modified method of Matsumoto et al. (WO2009/063992) as follows. That is, SD female rats (CLEA Japan, Inc.) were anesthetized with isoflurane (1.0%; Abbott), and the spinal cord was transected at Th8-9 to avoid the voiding reflex. After laparotomy, an intravesical pressure measurement catheter and a saline infusion catheter (PE-100; Clay Adams) were inserted into the bladder. Thereafter, the abdomen of the rat was closed with aronalpha A “Sankyo” (Daiichi Sankyo). […] The intravesical pressure measurement catheter was connected to a computer via a pressure transducer (REF685640; Nihon Koden), an amplifier (RPM-6008M; Nihon Koden), and a multi-channel data analyzer (MP150; Biopack), and changes in the intravesical pressure were recorded on a hard disc at a frequency of 100 samples/sec. […] The LPP value (Pre value) was measured, a drug was intravenously administered, and the measurement of LPP value (Post value) was again started 10 min after administration. […]
The compound of Example 6 (0.3 mg/kg), the compound of Example 6 (1.0 mg/kg) and the vehicle were administered to the rats, and the urethral resistance increasing effect was measured by the aforementioned method.

Test [1] addresses T1, human serotonin transporter (Homo sapiens, UniProt P31645).
T1 construct: expressed in transfected cells
Briefly: Inhibitory action on human serotonin transporter ([3H]-5-hydroxytryptamine uptake in CHO cells). The class given is cell-based. Particulars: relative to inhibitory activity of 10 μM Paroxetine as 100%, read-out: inhibitory rate (%). The text has this: (2) Preparation of Human Monoamine Expressing Cell
(§1) Human serotonin transporter cDNA was amplified from human brain cDNA library by PCR, and inserted into pCRII-TOPO vector (manufactured by Invitrogen). The base sequence was confirmed and modified, and subcloned to pcDNA3.1 vector (manufactured by Invitrogen), whereby a human serotonin transporter expression plasmid was constructed. Human norepinephrine transporter cDNA was purchased from Invitrogen, and the base sequence was confirm and modified, and subcloned to pcDNA3.1 vector, whereby a human norepinephrine transporter expression plasmid was constructed. […]
The cultured cells that reached almost confluent were rinsed with PBS (Invitrogen), detached with Trypsin/EDTA (Invitrogen), and collected by a centrifugal operation. The obtained cells were counted, and diluted to 3×10^5 cells per 1 mL medium, the mixture was dispensed to a 96 well white plate (Corning) at 100 μL per well, and cultured overnight in a CO2 incubator.
(§2) Then, an assay buffer (126 mM NaCl, 4.95 mM KCl, 1.26 mM KH2PO4, 1.26 mM MgSO4, 10 mM HEPES, 2.32 mM CaCl2, 5.52 mM Glucose, 0.5% BSA) was prepared, the medium in the cell plate was removed and the assay buffer was added by 80 μL. […] The radioactivity was measured by TopCount (PerkinElmer). […]

In test [2] the target is human norepinephrine transporter (Homo sapiens, UniProt P23975). Briefly: Inhibitory action on human norepinephrine transporter ([3H]-norepinephrine uptake in CHO cells). It is filed as cell-based. The conditions noted are these: relative to inhibitory activity of 10 μM DMI as 100%, read-out: inhibitory rate (%).
Source text: as §1
The cultured cells that reached almost confluent were rinsed with PBS (Invitrogen), detached with Trypsin/EDTA (Invitrogen), and collected by a centrifugal operation. The obtained cells were counted, and diluted to 3×10^5 cells per 1 mL medium, and the mixture was dispensed to a 96 well white plate (Corning) at 100 μL per well, and cultured overnight in a CO2 incubator.
as §2

In test [3] the target is T2, human dopamine transporter (Homo sapiens, UniProt Q01959).
T2 construct: expressed in transfected cells
Briefly: Inhibitory action on human dopamine transporter ([3H]-dopamine uptake in CHO cells). It is filed as cell-based. The conditions noted are these: relative to inhibitory activity of 100 μM Nomifensine as 100%, read-out: inhibitory rate (%). The text has this:
(1) Construction of Human Dopamine Transporter Expression Plasmid
SRα promoter contained in pTB1411 described in JP-A-H5-076385 was cleaved with restriction enzyme HindIII (manufactured by TAKARA BIO INC.), blunt-ended, further cleaved with restriction enzyme EcoRI (manufactured by TAKARA BIO INC.), and fragmented. On the other hand, pCI vector was cleaved with restriction enzyme BglII (manufactured by TAKARA BIO INC.), blunt-ended with T4 DNA polymerase, and further cleaved with restriction enzyme EcoRI (manufactured by TAKARA BIO INC.). Into this site was inserted an SRα promoter fragment to give pCI-SRa. […]
One day before the assay, the cultured cells that reached almost confluent were rinsed with PBS (Invitrogen), detached with Trypsin/EDTA (Invitrogen), and collected by a centrifugal operation. The obtained cells were counted, and diluted to 3×10^5 cells per 1 mL medium, and the mixture was dispensed to a 96 well white plate (Corning) at 100 μL per well, and cultured overnight in a CO2 incubator.
On the day of the test, an assay buffer (126 mM NaCl, 4.95 mM KCl, 1.26 mM KH2PO4, 1.26 mM MgSO4, 10 mM HEPES, 2.32 mM CaCl2, 5.52 mM Glucose, 0.5% BSA) was prepared, the medium in the cell plate was removed and the assay buffer was added by 80 μL. […] The radioactivity was measured by TopCount (PerkinElmer). […]

Molecules are shown by their SMILES. Where a name gives a salt, the structure may show the parent alone.

T2 sequence (Q01959 whole entry): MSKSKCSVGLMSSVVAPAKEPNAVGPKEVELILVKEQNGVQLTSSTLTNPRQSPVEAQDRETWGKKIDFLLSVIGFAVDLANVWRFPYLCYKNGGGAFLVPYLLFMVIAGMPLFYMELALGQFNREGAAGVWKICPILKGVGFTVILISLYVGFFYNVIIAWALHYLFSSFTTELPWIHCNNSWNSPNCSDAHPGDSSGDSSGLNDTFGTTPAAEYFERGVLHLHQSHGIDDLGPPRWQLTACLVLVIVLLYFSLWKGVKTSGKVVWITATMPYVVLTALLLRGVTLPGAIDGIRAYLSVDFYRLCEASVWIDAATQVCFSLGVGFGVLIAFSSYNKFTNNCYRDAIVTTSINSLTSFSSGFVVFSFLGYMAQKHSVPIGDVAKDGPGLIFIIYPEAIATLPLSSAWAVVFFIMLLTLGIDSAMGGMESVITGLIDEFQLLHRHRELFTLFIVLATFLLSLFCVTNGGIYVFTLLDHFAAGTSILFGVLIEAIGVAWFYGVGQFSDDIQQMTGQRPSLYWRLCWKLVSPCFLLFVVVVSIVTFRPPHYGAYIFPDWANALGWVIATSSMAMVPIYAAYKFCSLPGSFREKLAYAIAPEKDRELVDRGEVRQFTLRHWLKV
T1 sequence (P31645 whole entry): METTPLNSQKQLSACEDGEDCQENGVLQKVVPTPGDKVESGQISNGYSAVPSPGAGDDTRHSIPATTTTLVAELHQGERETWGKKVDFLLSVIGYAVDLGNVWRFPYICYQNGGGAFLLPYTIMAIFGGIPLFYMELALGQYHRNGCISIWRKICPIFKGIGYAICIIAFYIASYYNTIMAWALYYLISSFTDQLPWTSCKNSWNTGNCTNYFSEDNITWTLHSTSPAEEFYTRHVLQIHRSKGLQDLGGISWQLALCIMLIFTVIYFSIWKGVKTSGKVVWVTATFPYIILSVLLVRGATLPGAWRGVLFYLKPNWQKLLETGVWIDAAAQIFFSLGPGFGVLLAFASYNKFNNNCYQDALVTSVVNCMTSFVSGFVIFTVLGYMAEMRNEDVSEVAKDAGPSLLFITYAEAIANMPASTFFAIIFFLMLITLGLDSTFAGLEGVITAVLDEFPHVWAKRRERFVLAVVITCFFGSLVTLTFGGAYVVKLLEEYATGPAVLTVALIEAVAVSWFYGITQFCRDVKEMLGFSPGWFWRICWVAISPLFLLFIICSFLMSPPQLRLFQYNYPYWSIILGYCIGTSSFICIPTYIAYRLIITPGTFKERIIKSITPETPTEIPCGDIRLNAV
Sequence of human norepinephrine transporter (P23975 whole entry): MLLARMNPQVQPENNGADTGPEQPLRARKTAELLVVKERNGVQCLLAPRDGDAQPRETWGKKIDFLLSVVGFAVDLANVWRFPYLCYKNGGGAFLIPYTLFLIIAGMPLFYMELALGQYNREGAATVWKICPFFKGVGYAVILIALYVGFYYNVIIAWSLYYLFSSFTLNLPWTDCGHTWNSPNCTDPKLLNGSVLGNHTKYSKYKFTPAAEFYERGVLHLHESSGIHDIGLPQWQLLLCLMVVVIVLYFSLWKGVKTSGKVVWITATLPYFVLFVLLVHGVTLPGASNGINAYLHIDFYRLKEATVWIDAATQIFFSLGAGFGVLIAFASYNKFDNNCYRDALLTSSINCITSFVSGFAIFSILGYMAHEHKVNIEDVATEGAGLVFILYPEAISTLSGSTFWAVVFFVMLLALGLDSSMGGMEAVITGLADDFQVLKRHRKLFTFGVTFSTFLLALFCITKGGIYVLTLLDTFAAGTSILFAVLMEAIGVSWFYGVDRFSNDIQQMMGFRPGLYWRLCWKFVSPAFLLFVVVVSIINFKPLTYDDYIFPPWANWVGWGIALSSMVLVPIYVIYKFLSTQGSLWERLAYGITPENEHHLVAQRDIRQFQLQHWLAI

For the compound `CC(=O)NC[C@H]1CNCCO[C@@H]1c1ccc(Cl)c(Cl)c1` (racemic) [Example 6, N-{[(6RS,7SR)-7-(3,4-dichlorophenyl)-1,4-oxazepan-6-yl]methyl}acetamide monohydrochloride], the “urethral resistance increasing effect (LPP Post value minus Pre value)” value in the test on SD female rats is “dose-dependent and significant urethral resistance increasing effect”.

On to `OC[C@H]1NCCOC[C@@H]1c1ccc(Cl)c(Cl)c1` (racemic) [Example 14, [(5RS,6SR)-6-(3,4-dichlorophenyl)-1,4-oxazepan-5-yl]methanol monohydrochloride], for which the inhibition at 1 µM in test [1] (compound 1 μM) amounted to 31%; in test [2] (compound 1 μM), 98%; in test [3] (compound 1 μM), 87%. Also, the inhibition at 10 µM in test [1] (compound 10 μM, CHO cells expressing human serotonin transporter) turned out to be 79%; in test [2] (compound 10 μM), 100%; in test [3] (compound 10 μM), 99%.

The values above are taken from US8722662B2, “Heterocyclic compounds” (Takeda Pharmaceutical Company Limited, priority 2010, dated 2014).
